Source: US6737383B1, “Herbicidal oxadiazolidines” (priority 1999, dated 2004)

Assays:
[1] = tested on: rape; assay: Test B pre/postemergence rape; format: in vivo, Brassica napus
In short: (§1)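 Herbicidal effect was estimated by eye on a ten-point control scale after plants spent twelve to sixteen days in a greenhouse following soil or foliar treatment. Foliar sprays targeted plants at one to four leaves; all doses were formulated in a non-phytotoxic solvent with surfactant.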

[2] = tested on: bamyardgrass; assay: Test B flood test barnyardgrass; format: in vivo, Echinochloa crus-galli; details: Pre-emergence
In short: (§2)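 Plants were grown to the 2-leaf stage before treatment with test chemical, then held in a greenhouse for twelve to sixteen days. Injury was visually rated against untreated controls on a 0–10 scale, where 0 is no effect and 10 is complete control.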

[3] = tested on: corn; assay: Test B pre/postemergence corn; format: in vivo, Zea mays
In short: as §1

[4] = tested on: smallflower flatsedge; assay: Test B flood test smallflower flatsedge; format: in vivo, Cyperus difformis; details: Pre-emergence
In short: as §2

[5] = tested on: wild oat; assay: Test B pre/postemergence wild oat; format: in vivo, Avena fatua
In short: as §1

[6] = tested on: purple nutsedge; assay: Test B pre/postemergence purple nutsedge; format: in vivo, Cyperus rotundus
In short: as §1

[7] = tested on: crabgrass; assay: Test B pre/postemergence crabgrass; format: in vivo, Digitaria sanguinalis
In short: as §1

[8] = tested on: sugar beet; assay: Test B pre/postemergence sugar beet; format: in vivo, Beta vulgaris
In short: as §1

[9] = tested on: rice; assay: Test B flood test rice; format: in vivo, Oryza sativa; details: Pre-emergence
In short: as §2

[10] = tested on: bedstraw; assay: Test B pre/postemergence bedstraw; format: in vivo, Galium aparine
In short: as §1

[11] = tested on: giant foxtail; assay: Test B pre/postemergence giant foxtail; format: in vivo, Setaria faberii
In short: as §1

[12] = tested on: duck salad; assay: Test B flood test duck salad; format: in vivo, Heteranthera limosa; details: Pre-emergence
In short: as §2

[13] = tested on: wheat; assay: Test B pre/postemergence wheat; format: in vivo, Triticum aestivum
In short: as §1

[14] = tested on: velvetleaf; assay: Test B pre/postemergence velvetleaf; format: in vivo, Abutilon theophrasti
In short: as §1

[15] = tested on: surinam grass; assay: Test B pre/postemergence surinam grass; format: in vivo, Brachiaria decumbens
In short: as §1

[16] = tested on: blackgrass; assay: Test B pre/postemergence blackgrass; format: in vivo, Alopecurus myosuroides
In short: as §1

[17] = Preemergence, Rate 62 g/ha, scale of 0 to 10 where 0 is no effect and 10 is complete control
[18] = Preemergence, Rate 250 g/ha, scale of 0 to 10 where 0 is no effect and 10 is complete control
[19] = Preemergence, Rate 500 g/ha, scale of 0 to 10 where 0 is no effect and 10 is complete control
[20] = Rate 62 g/ha, Postemergence, scale 0 to 10 (0 no effect, 10 complete control)
[21] = Rate 125 g/ha, Postemergence, scale of 0 to 10 where 0 is no effect and 10 is complete control
[22] = Rate 250 g/ha, Postemergence, scale of 0 to 10 where 0 is no effect and 10 is complete control
[23] = Rate 1000 g/ha, scale 0 to 10 (0 no effect, 10 complete control)
[24] = Rate 125 g/ha, flood test species, scale 0 to 10 where 0 is no effect and 10 is complete control
[25] = Rate 250 g/ha, flood-test species, scale 0 to 10, 0 is no effect, 10 is complete control
[26] = Rate 500 g/ha, flood test species, scale 0 to 10 (0 no effect, 10 complete control)
[27] = Rate 500 g/ha, Postemergence, scale 0 to 10, 0 no effect, 10 complete control

CCN(C(=O)n1oc(=O)n(C(C)C)c1=O)C1CCCCC1 [Compound 309]
5: Giant foxtail plant response rating [11, 17]
9: Giant foxtail plant response rating (0 to 10 scale) ([11]; Preemergence, Rate 125 g/ha) | Giant foxtail plant response rating [11, 18] | Giant foxtail plant response rating [11, 19]
0: Rape plant response rating [1, 17] | Rape plant response rating (0 to 10 scale) ([1]; Preemergence, Rate 125 g/ha) | Rape plant response rating [1, 18] | Rape plant response rating [1, 19] | Rape plant response rating [1, 20] | Rape plant response rating [1, 21] | Plant response rating, Rape [1, 22] | Barnyardgrass plant response rating [2, 23] | Barnyardgrass plant response rating [2, 24] | Barnyardgrass plant response rating [2, 25] | Barnyardgrass plant response rating [2, 26] | Corn plant response rating [3, 17] | Corn plant response rating (0 to 10 scale) ([3]; Preemergence, Rate 125 g/ha) | Corn plant response rating [3, 20] | Corn plant response rating [3, 21] | Plant response rating, Corn [3, 22] | Corn plant response rating [3, 27] | S. Flatsedge plant response rating [4, 23] | S. Flatsedge plant response rating [4, 24] | S. Flatsedge plant response rating [4, 25] | S. Flatsedge plant response rating [4, 26] | Wild oats plant response rating [5, 17] | Wild oats plant response rating (0 to 10 scale) ([5]; Preemergence, Rate 125 g/ha) | Wild oats plant response rating [5, 18] | Wild oats plant response rating [5, 20] | Wild oats plant response rating [5, 21] | Plant response rating, Wild oats [5, 22] | Nutsedge plant response rating [6, 17] | Nutsedge plant response rating (0 to 10 scale) ([6]; Preemergence, Rate 125 g/ha) | Nutsedge plant response rating [6, 18] | Nutsedge plant response rating [6, 19] | Nutsedge plant response rating [6, 20] | Nutsedge plant response rating [6, 21] | Plant response rating, Nutsedge [6, 22] | Crabgrass plant response rating [7, 17] | Crabgrass plant response rating [7, 20] | Crabgrass plant response rating [7, 21] | Plant response rating, Crabgrass [7, 22] | Sugarbeets plant response rating [8, 17] | Sugarbeets plant response rating (0 to 10 scale) ([8]; Preemergence, Rate 125 g/ha) | Sugarbeets plant response rating [8, 18] | Sugarbeets plant response rating [8, 19] | Sugarbeets plant response rating [8, 20] | Sugarbeets plant response rating [8, 21] | Plant response rating, Sugarbeets [8, 22] | Rice plant response rating [9, 23] | Rice plant response rating [9, 24] | Rice plant response rating [9, 25] | Rice plant response rating [9, 26] | Bedstraw plant response rating [10, 17] | Bedstraw plant response rating (0 to 10 scale) ([10]; Preemergence, Rate 125 g/ha) | Bedstraw plant response rating [10, 18] | Bedstraw plant response rating [10, 19] | Bedstraw plant response rating [10, 20] | Bedstraw plant response rating [10, 21] | Plant response rating, Bedstraw [10, 22] | Bedstraw plant response rating [10, 27] | Giant foxtail plant response rating [11, 20] | Giant foxtail plant response rating [11, 21] | Plant response rating, Giant foxtail [11, 22] | Ducksalad plant response rating [12, 23] | Ducksalad plant response rating [12, 24] | Ducksalad plant response rating [12, 25] | Ducksalad plant response rating [12, 26] | Wheat plant response rating [13, 17] | Wheat plant response rating (0 to 10 scale) ([13]; Preemergence, Rate 125 g/ha) | Wheat plant response rating [13, 18] | Wheat plant response rating [13, 19] | Wheat plant response rating [13, 20] | Wheat plant response rating [13, 21] | Plant response rating, Wheat [13, 22] | Velvetleaf plant response rating [14, 17] | Velvetleaf plant response rating (0 to 10 scale) ([14]; Preemergence, Rate 125 g/ha) | Velvetleaf plant response rating [14, 18] | Velvetleaf plant response rating [14, 20] | Velvetleaf plant response rating [14, 21] | Plant response rating, Velvetleaf [14, 22] | B. signalgrass plant response rating [15, 17] | B. signalgrass plant response rating (0 to 10 scale, 0 is no effect, 10 is complete control) ([15]; Preemergence, Rate 125 g/ha) | B. signalgrass plant response rating [15, 18] | B. signalgrass plant response rating [15, 20] | B. signalgrass plant response rating [15, 21] | Plant response rating, B. signalgrass [15, 22] | B. signalgrass plant response rating [15, 27] | Blackgrass plant response rating [16, 17] | Blackgrass plant response rating (0 to 10 scale) ([16]; Preemergence, Rate 125 g/ha) | Blackgrass plant response rating [16, 20] | Blackgrass plant response rating [16, 21] | Plant response rating, Blackgrass [16, 22]
6: Crabgrass plant response rating [7, 19] | Blackgrass plant response rating [16, 19]
1: Crabgrass plant response rating (0 to 10 scale) ([7]; Preemergence, Rate 125 g/ha)
2: Corn plant response rating [3, 18] | Wild oats plant response rating [5, 19] | Crabgrass plant response rating [7, 18] | Velvetleaf plant response rating [14, 19] | B. signalgrass plant response rating [15, 19] | Blackgrass plant response rating [16, 18] | Blackgrass plant response rating [16, 27]
4: Corn plant response rating [3, 19]
